According to ChEMBL document CHEMBL5260811, “Drug development against tuberculosis: Impact of alkaloids” (Eur J Med Chem, 2017):
Converted amounts (≈) assume the structure as drawn. Starred links: 1 amine or outer side, 2 acyl side, 3 side chain; linkers in the order of their positions; H or OH if unused. Positions of bridges follow the written chain, without caps; N, C: chain ends. Non-standard residues stand in square brackets, D forms with d. Residues, ends and D or L forms follow the SMILES beside them. ξ: configuration not given here. *: point of attachment. X2 = N=C1NCCC([C@H](N[*:1])C(=O)[*:2])N1; ΔAla(Z-3-ureido) = NC(=O)N/C=C(\N)C(=O)O; ξβ3hOrn = NCCCC(N)CC(=O)*; Dap = NC[C@H](N)C(=O)O

Legend:
[1] = test system: Mycobacterium tuberculosis; test: Antimycobacterial activity against Mycobacterium tuberculosis Rv3790 harbouring DprE1 gene; format: functional
[2] = test system: Mycobacterium tuberculosis; test: Antimycobacterial activity against Mycobacterium tuberculosis harbouring katG gene; format: functional
[3] = test system: Mycobacterium tuberculosis; test: Antimycobacterial activity against Mycobacterium tuberculosis harbouring fdxA gene; format: functional
[4] = test system: Mycobacterium tuberculosis; test: Antimycobacterial activity against Mycobacterium tuberculosis Rv1302 harbouring rfe gene; format: functional
[5] = test system: Mycobacterium tuberculosis; test: Antimycobacterial activity against Mycobacterium tuberculosis Rv1302 harbouring wecA gene; format: functional
[6] = test system: Mycobacterium tuberculosis; test: Antimycobacterial activity against Mycobacterium tuberculosis Rv2156c harbouring mraY gene; format: functional
[7] = test system: Mycobacterium tuberculosis; test: Antimycobacterial activity against Mycobacterium tuberculosis harbouring rrs gene; format: functional
[8] = test system: Mycobacterium tuberculosis; test: Antimycobacterial activity against rifampicin-resistant Mycobacterium tuberculosis; format: functional
[9] = test system: Mycobacterium tuberculosis; test: Antimycobacterial activity against Mycobacterium tuberculosis 000019 harbouring rrs gene; format: functional
[10] = test system: Mycobacterium tuberculosis; test: Antimycobacterial activity against Mycobacterium tuberculosis harbouring thyA gene; format: functional
[11] = test system: Mycobacterium tuberculosis; test: Antimycobacterial activity against Mycobacterium tuberculosis Rv0503c harbouring cmaA2 gene; format: functional
[12] = test system: Mycobacterium tuberculosis; test: Antimycobacterial activity against Mycobacterium tuberculosis Rv2068c harbouring blaC gene; format: functional
[13] = test system: Mycobacterium tuberculosis; test: Antimycobacterial activity against Mycobacterium tuberculosis Rv0050 harbouring ponA1 gene; format: functional
[14] = test system: Mycobacterium tuberculosis; test: Antimycobacterial activity against Mycobacterium tuberculosis Rv1305 harbouring atpE gene; format: functional
[15] = test system: Mycobacterium tuberculosis; test: Antimycobacterial activity against drug-resistant Mycobacterium tuberculosis; format: functional
[16] = test system: Mycobacterium tuberculosis; test: Antimycobacterial activity against extensively drug resistant Mycobacterium tuberculosis clinical isolates; format: functional
[17] = test system: Mycobacterium tuberculosis; test: Antimycobacterial activity against multi-drug resistant Mycobacterium tuberculosis clinical isolates; format: functional
[18] = test system: Mycobacterium tuberculosis; test: Antimycobacterial activity against Mycobacterium tuberculosis Rv2163c harbouring ftsI gene; format: functional
[19] = test system: Mycobacterium tuberculosis; test: Antimycobacterial activity against Mycobacterium tuberculosis Rv2163c harbouring pbpB gene; format: functional
[20] = test system: Mycobacterium tuberculosis; test: Antimycobacterial activity against Mycobacterium tuberculosis Rv0006 harbouring gyrA gene; format: functional
[21] = test system: Mycobacterium tuberculosis; test: Antimycobacterial activity against Mycobacterium tuberculosis Rv0005 harbouring gyrB gene; format: functional
[22] = test system: Mycobacterium tuberculosis; test: Antimycobacterial activity against Mycobacterium tuberculosis Rv0706 harbouring rplV gene; format: functional
[23] = test system: Mycobacterium tuberculosis; test: Antimycobacterial activity against Mycobacterium tuberculosis harbouring embCAB gene; format: functional
[24] = test system: Mycobacterium tuberculosis; test: microbe, parasite or virus in culture

CCOC(=O)NC(=O)c1ccsc1NC(=O)c1nc2ccccc2s1
MIC [1]: 0.01 µg/mL (≈ 0.0266 µM)
MIC [2]: 0.01 µg/mL (≈ 0.0266 µM)
MIC [3]: 0.01 µg/mL (≈ 0.0266 µM)

CCCCc1ccc(NC(=O)C2=CCN(C)[C@@H]([C@H](O[C@@H]3O[C@H](CN)[C@@H](O)[C@H]3O)[C@H]3O[C@@H](n4ccc(=O)[nH]c4=O)[C@H](O)[C@@H]3O)C(=O)N2C)cc1
MIC [4]: 1.56 µg/mL (≈ 2.27 µM)
MIC [5]: 1.56 µg/mL (≈ 2.27 µM)

CCCCCCCCCC(=O)O[C@H]1[C@@H](OC)[C@H]([C@H](O[C@@H]2OC(C(=O)N[C@@H]3CCC[C@H](C)NC3=O)=C[C@@H](O)[C@H]2O)[C@H](N)O)O[C@@H]1n1ccc(=O)[nH]c1=O
MIC [6]: 0.12 µg/mL (≈ 0.162 µM)

N=C1NCCC([C@@H]2NC(=O)/C(=C/NC(N)=O)NC(=O)[C@H](CNC(=O)CC(N)CCCN)NC(=O)[C@H](CO)NC(=O)[C@@H](N)CNC2=O)N1 (stereo partly drawn) (H-[Dap]S[Dap](ξβ3hOrn)[ΔAla(Z-3-ureido)][X2]; lactam 1-C)
MIC [7]: 1.25 µg/mL (≈ 1.87 µM)

COc1ccc2c3c(c4cc(OC)c(OC)cc4c2c1)CN1CCCC1C3 (stereo not drawn) [(+/-)-DEOXYTYLOPHORININE]
MIC [8]: 6.25 µg/mL (≈ 17.2 µM)

NCC[C@H](O)C(=O)N[C@@H]1C[C@H](N)[C@@H](O[C@H]2O[C@H](CN)[C@@H](O)[C@H](O)[C@H]2O)[C@H](O)[C@H]1O[C@H]1O[C@H](CO)[C@@H](O)[C@H](N)[C@H]1O [AMIKACIN]
MIC [9]: 0.12 µg/mL (≈ 0.205 µM)

Nc1ccc(C(=O)O)c(O)c1 [AMINOSALICYLIC ACID]
MIC [10]: 1 µg/mL (≈ 6.53 µM)

CC(=O)Nc1ccc(/C=N/NC(N)=S)cc1 [AMITHIOZONE]
MIC [11]: 0.1 µg/mL (≈ 0.423 µM)

CC1(C)S[C@@H]2[C@H](NC(=O)[C@H](N)c3ccc(O)cc3)C(=O)N2[C@H]1C(=O)O [AMOXICILLIN]
MIC [12]: 10 µg/mL
MIC [13]: 10 µg/mL

COc1nc2ccc(Br)cc2cc1[C@@H](c1ccccc1)[C@@](O)(CCN(C)C)c1cccc2ccccc12 [BEDAQUILINE]
MIC [14]: 0.063 µg/mL (≈ 0.113 µM)
MIC [15]: 60 µg/mL (≈ 108 µM)

C[C@H]1COC2(CCN(c3nc(=O)c4cc(C(F)(F)F)cc([N+](=O)[O-])c4s3)CC2)O1 [BTZ-043]
MIC [1]: 0.001 µg/mL (≈ 0.00232 µM)
MIC [16]: 0.001 µg/mL (≈ 0.00232 µM)
MIC [17]: 0.0001 µg/mL (≈ 0.000232 µM)

CC1(C)C[C@@H]1C(=O)N/C(=C\CCCCSC[C@H](N)C(=O)O)C(=O)O [CILASTATIN]
MIC [18]: 0.16 µg/mL (≈ 0.446 µM)
MIC [19]: 0.16 µg/mL

O=C(O)c1cn(C2CC2)c2cc(N3CCNCC3)c(F)cc2c1=O [CIPROFLOXACIN]
MIC [20]: 0.125 µg/mL (≈ 0.377 µM)
MIC [21]: 0.125 µg/mL (≈ 0.377 µM)

CC[C@H]1OC(=O)[C@H](C)[C@@H](O[C@H]2C[C@@](C)(OC)[C@@H](O)[C@H](C)O2)[C@H](C)[C@@H](O[C@@H]2O[C@H](C)C[C@H](N(C)C)[C@H]2O)[C@](C)(OC)C[C@@H](C)C(=O)[C@H](C)[C@@H](O)[C@]1(C)O [CLARITHROMYCIN]
MIC [22]: 1 µg/mL (≈ 1.34 µM)

O=C(O)[C@H]1/C(=C/CO)O[C@@H]2CC(=O)N21 [CLAVULANIC ACID]
MIC [19]: 0.23 µM
MIC [12]: 0.23 µM
MIC [13]: 0.23 µM

CC[C@@H](CO)NCCN[C@@H](CC)CO [ETHAMBUTOL]
MIC [23]: 1 µg/mL (≈ 4.89 µM)

CCc1cc(C(N)=S)ccn1 [ETHIONAMIDE]
MIC [24]: 0.6 µg/mL (≈ 3.61 µM)

COc1c(N2CCNC(C)C2)c(F)cc2c(=O)c(C(=O)O)cn(C3CC3)c12 (stereo not given) [GATIFLOXACIN]
MIC [20]: 1 µg/mL (≈ 2.66 µM)
MIC [21]: 1 µg/mL (≈ 2.66 µM)
